Experimental data from patent US6020374A, “Biologically active synthetic dye compounds” (priority 1998, dated 2000).

Assays:
Format in all cases: cell-based
[1] = tested on: MAPK-1 (44 kDa) and MAPK-2 (42 kDa); assay: Activation of MAPKs in MCF-7 cells (anti-active MAPK immunoblot); details: 5 mins., ATA, EB each at 300 μg/ml, IGF-1 20 or 40 ng/ml
Procedure: FIG. 7 is the effect of ATA and EB on activation of MAPKs: MCF-7 cells were treated for 5 mins. with ATA, EB, each at 300 μg/ml, 20 ng/ml or 40 ng/ml IGF-1. Cell lysates, solubilized in Buffer C, were subjected to 12% SDS-PAGE and immunoblotted with an anti-active MAPK antibody. The membrane, after ECL detection, was stripped of bound antibody and blotted with an anti-MAPK antibody.
(§1) Nitrocellulose blots of proteins were incubated with the antibodies, and proteins were detected by enhanced chemiluminescence using horseradish peroxidase-labeled protein A, horseradish peroxidase-labeled anti rabbit IgG or horseradish peroxidase-labeled anti-mouse IgG.
The activated forms of MAPKs were detected by anti-active MAPK immunoblotting in the MCF-7 cell's lysates. […] Blotting with anti MAPKs antibodies confirms that similar amounts of MAPKs were present in treated and non-treated cells.

[2] = tested on: 185 kDa protein(s) (p185); assay: Tyrosine phosphorylation of p185 in MCF-7 cells (anti-phosphotyrosine immunoblot); details: MCF-7 cells; for Tyrosine phosphorylation of a 185 kDa protein(s): ATA, EB each at 300 μg/ml, IGF-1 at 20 ng/ml; for Exposure time at which p185 phosphorylation peaked: 300 μg/ml ATA, 30 μg/ml EB
Procedure: FIG. 1 is the effect of ATA and EB on tyrosine phosphorylation: MCF-7 cells, grown in 35 mm dishes were solubilized in Buffer A (a) or Buffer B (b-c). The solubilized cells were subjected to 7.5% SDS-PAGE and immunoblotted with an anti-phosphotyrosine antibody. (a) Cells treated for 5 mins. with ATA, EB, each at 300 μg/ml, IGF-1 at 20 ng/ml, or without additives (CON); (b) Cells treated with 300 μg/ml ATA for the indicated times; (c) Cells treated with 30 μg/ml EB for the indicated times; (d) Cells treated for 5 mins. with the indicated concentrations of ATA; (e) Cells treated for 5 mins. with the indicated concentrations of EB. Molecular mass markers (in kDa) are indicated on the right.
FIG. 2 is the effect of ATA and vanadate on the IGF-1 stimulated tyrosine phosphorylation of p185: A--Cells treated for 5 mins. with the indicated concentrations of IGF-1 in the presence or absence of 300 μg/ml ATA; B--Cells pre-incubated for 3 hours with or without 50 μM vanadate were incubated for 5 mins. with ATA, EB each at 300 μg/ml or with 10 ng/ml IGF-1 in the presence or absence of vanadate. Cytosols extracted in Buffer B were analyzed by immunoblotting with anti-phosphotyrosine antibody as in FIG. 1.
FIG. 8 is the effect of fractionated ATA on p185 phosphorylation: A--Crude ATA was separated on a Bio-Rad P-4 column and the combined void volume was then gel filtrated on a column of Bio-Rad P-10. The column was calibrated with the following molecular weight markers: DB-Dextran blue; CC-cytochrome C: Ins-insulin; B12-Vitamin B12. B--MCF-7 cells were incubated for 5 mins. with the indicated fractions of ATA (eluted from the P-10 column shown in A), crude ATA, each at 200 μg/ml or IGF-1 at 20 ng/ml. Cytosols, solubilized in Buffer B were subjected to 7.5% SDS-PAGE and immunoblotted with phosphotyrosine antibody.
(§2) MCF-7 cells were grown in 35 or 100 mm dishes in DMEM with 5% bovine fetal serum. Rat hepato FaO cells were grown in RPMI 1640 medium supplemented with 10% fetal calf serum. Subconfluent monolayers of MCF-7 cells or FaO cells, were deprived of serum for 20 hours prior to each experiment. The medium was removed, and cells were incubated at 37° C. under the conditions as indicated for each experiment. The reaction was terminated by removing the medium and freezing the monolayers with liquid nitrogen. In some experiments, cells were preincubated with 50 μM sodium orthovanadate for 3 hours.
Cells were solubilized at 4° C. with 0.2 ml/35 mm dish or 2 ml/100 mm dish of the indicated buffer. The solubilized cells were scraped and sedimented by centrifugation at 12,000×g for 30 mins. at 4° C. Aliquots of the supernatants were normalized for protein, mixed with concentrated (5×) Laemmli sample buffer, boiled for 10 mins. and resolved on 7.5 or 12% SDS-PAGE under reducing conditions.
as §1

IR = target: T1, IR (Rattus norvegicus, UniProt P15127); assay: Tyrosine phosphorylation of IR in FaO cells; details: EB; for Tyrosine phosphorylation of IR: 5 mins., ATA at 200 μg/ml
T1 construct: determined in the rat hepatoma cell line FaO; endogenous in cells; host or cells: FaO (rat hepatoma)
T1 sequence (P15127 764-1383 limits assumed): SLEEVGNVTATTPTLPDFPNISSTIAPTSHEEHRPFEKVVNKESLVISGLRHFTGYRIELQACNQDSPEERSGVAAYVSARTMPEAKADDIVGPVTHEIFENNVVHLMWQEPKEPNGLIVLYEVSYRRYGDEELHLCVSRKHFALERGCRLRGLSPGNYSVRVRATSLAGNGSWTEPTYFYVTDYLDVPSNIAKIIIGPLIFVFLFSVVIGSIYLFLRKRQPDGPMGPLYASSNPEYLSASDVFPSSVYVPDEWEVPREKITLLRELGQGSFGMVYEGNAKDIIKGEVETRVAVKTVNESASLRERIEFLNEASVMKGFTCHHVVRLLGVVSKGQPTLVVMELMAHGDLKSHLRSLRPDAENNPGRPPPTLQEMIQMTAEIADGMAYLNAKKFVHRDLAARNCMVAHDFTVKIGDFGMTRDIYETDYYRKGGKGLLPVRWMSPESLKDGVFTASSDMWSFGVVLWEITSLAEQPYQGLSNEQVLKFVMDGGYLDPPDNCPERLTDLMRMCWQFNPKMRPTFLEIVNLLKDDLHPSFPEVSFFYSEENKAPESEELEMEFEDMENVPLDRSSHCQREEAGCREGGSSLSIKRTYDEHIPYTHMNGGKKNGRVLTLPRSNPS
T1 sequence (P15127 27-759 limits assumed): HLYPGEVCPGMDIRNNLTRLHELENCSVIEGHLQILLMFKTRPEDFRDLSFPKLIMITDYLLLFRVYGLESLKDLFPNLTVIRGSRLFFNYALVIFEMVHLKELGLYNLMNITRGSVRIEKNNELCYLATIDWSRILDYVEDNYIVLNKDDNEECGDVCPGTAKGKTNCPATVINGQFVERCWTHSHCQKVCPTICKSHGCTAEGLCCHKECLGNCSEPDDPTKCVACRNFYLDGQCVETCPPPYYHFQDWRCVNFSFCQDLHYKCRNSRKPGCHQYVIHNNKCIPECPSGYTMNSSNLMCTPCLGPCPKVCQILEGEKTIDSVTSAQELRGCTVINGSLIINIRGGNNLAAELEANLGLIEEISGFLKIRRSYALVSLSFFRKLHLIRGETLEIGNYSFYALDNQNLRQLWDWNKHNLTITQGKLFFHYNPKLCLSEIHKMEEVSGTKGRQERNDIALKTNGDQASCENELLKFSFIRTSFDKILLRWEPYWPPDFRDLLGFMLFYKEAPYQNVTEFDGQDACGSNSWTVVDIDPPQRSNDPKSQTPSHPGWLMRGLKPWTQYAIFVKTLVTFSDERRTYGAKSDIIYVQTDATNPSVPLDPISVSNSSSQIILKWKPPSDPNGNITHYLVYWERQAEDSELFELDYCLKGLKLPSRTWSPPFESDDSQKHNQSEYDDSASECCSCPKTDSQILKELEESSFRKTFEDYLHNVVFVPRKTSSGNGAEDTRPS
Procedure: FIG. 9 is the tyrosine phosphorylation of the IR cascade in Fao cells: A--Immunoblot analysis: Fao cells were deprived of serum for 20 hours, then incubated with EB, ATA, at 200 μg/ml or insulin at 600 ng/ml for 5 mins. Cell extracts were subjected to immunoprecipitation with antibodies to: IR β-subunit (αIR), IRS-1 (αIRS-1) and to IRS-2 (αIRS-2). The immunoprecipitates and total cell extracts were analyzed by SDS-PAGE. Proteins were transferred to nitrocellulose papers, and phosphotyrosine containing proteins were probed with anti-phosphotyrosine antibodies (αP-Tyr), antibody to the 85-kDa subunit of PI3-kinase (αp85) and antibodies to active MAPK (α active MAPK). The immunoblots were visualized by ECL (Amersham).
B--Kinetics of IR phosphorylation: Cells were treated either with 200 μg/ml EB for the indicated times (top panel) or with the indicated concentrations of EB for 5 mins. (middle panel). A 3 hour preincubation with vanadate preceded the 5 min. incubations with EB and insulin (bottom panel).
as §2
Cells were solubilized in Buffer A or C. Extracts were immunoprecipitated at 4° C. with antibodies to IRS-1, IRS-2, IGF-1 or IR receptor or Grb2, adsorbed on protein A-Sepharose beads. The immunocomplexes were pelleted by centrifugation at 12,000×g and washed twice with Buffer A, and twice with Buffer A containing 0.1% Triton x-100. The pellets were then suspended in Laemmli sample buffer and resolved on 7.5% SDS-PAGE.
as §1
The ability of EB and ATA to phosphorylate the IR was determined in the rat hepatoma cell line FaO. […] Phosphorylation is maximal after a 1 min. exposure to 70 μg/ml of EB (FIG. 9B, top and middle panels).

Row | Structure (SMILES) | Phosphorylated (active) isoforms MAPK-1 and MAPK-2 [1] | Concentration of maximal p185 phosphorylation ([2]; 5 mins.) | Effect on IGF-1 induced phosphorylation of the 185 kDa protein(s) ([2]; 5 mins., 300 μg/ml ATA with IGF-1) | pp185 (arbitrary units) ([2]; 5 mins., ATA fractions or crude ATA each at 200 μg/ml, scanned autoradiogram from FIG. 8B, Control 100) | Tyrosine phosphorylation of a 185 kDa protein(s) ([2]; 5 mins.) | Exposure time at which p185 phosphorylation peaked [2] | Tyrosine phosphorylation of IR (IR) | Concentration of maximal IR phosphorylation (IR) | Exposure time of maximal IR phosphorylation (IR)
1 | O=C(O)C1=CC(=C(c2ccc(O)c(C(=O)O)c2)c2ccc(O)c(C(=O)O)c2)C=CC1=O [ATA, Aurintricarboxylic acid] | clearly detected | 300 to 400 µg/mL | unaffected | 668 arbitrary units | enhanced tyrosine phosphorylation of a 185 kDa protein(s) | 2 min | phosphorylates IR on tyrosine residues, similar to insulin |  | 
2 | Cc1cc(-c2ccc(N=Nc3ccc4c(S(=O)(=O)O)cc(S(=O)(=O)O)c(N)c4c3O)c(C)c2)ccc1N=Nc1ccc2c(S(=O)(=O)O)cc(S(=O)(=O)O)c(N)c2c1O [EB, Evan's Blue] | clearly detected | 300 to 400 µg/mL |  |  | enhanced tyrosine phosphorylation of a 185 kDa protein(s) | 5 min | phosphorylates IR on tyrosine residues, similar to insulin | 70 µg/mL | 1 min
